Key:
CDK2/Cyclin E1 [1] = target: T1, CDK2/Cyclin E1 (Homo sapiens, UniProt P24941); experiment: CDK2/Cyclin E1 TR-FRET biochemical assay, 0.060 mM ATP; conditions: 0.15 μM Rb (Ser780)-biotin substrate, 120 min reaction, Table 1
Description: (§1) Compounds disclosed herein were tested for inhibition of CDK2/Cyclin E1 or CDK1/Cyclin B1 kinase in an assay based on the time-resolved fluorescence-resonance energy transfer (TR-FRET) methodology. The assay was carried out in 384-well low volume black plates in a reaction mixture containing CDK2/Cyclin E1 or CDK1/Cyclin B1, 0.060 mM ATP for CDK2/Cyclin E1 or 0.015 mM ATP for CDK1/Cyclin B1, 0.15 μM Rb (Ser780)-biotin substrate and 0-10 μM compound in buffer containing 50 mM HEPES pH7.0, 0.02% NaN3, 0.01% BSA, 0.1 mM Orthovanadate, 50 mM MgCl2, 1 mM DTT and 0.005% Tween-20. The kinase was incubated with compound for 60 minutes at room temperature and the reaction was initiated by the addition of ATP and Rb (Ser780)-biotin substrate. After reaction at room temperature for 120 minutes, an equal volume of stop/detection solution was added according to the manufacture's instruction (Cisbio Bioassays). The stop/detection solution contained Streptavidin-XL665 and Anti-pRb (Ser780) mAb-Eu Cryptate in Detection buffer (Cisbio Bioassays). Plates were incubated at room temperature for 60 minutes, and the TR-FRET signals (ex337 nm, em665 nm/620 nm) were recorded on a PHERAstar FSX plate reader (BMG Labtech). The inhibition percentage of CDK2/Cyclin E1 or CDK1/Cyclin B1 kinase activity in presence of increasing concentrations of compounds was calculated based on the ratio of fluorescence at 665 nm to that at 620 nm. The IC50 for each compound was derived from fitting the data to the four-parameter logistic equation by Dotmatics.

CDK1/Cyclin B1 [2] = target: T2, CDK1/Cyclin B1 (Homo sapiens, UniProt P06493); experiment: CDK1/Cyclin B1 TR-FRET biochemical assay, 0.015 mM ATP; conditions: 0.15 μM Rb (Ser780)-biotin substrate, 120 min reaction, Table 1
T2 sequence (P06493 whole entry): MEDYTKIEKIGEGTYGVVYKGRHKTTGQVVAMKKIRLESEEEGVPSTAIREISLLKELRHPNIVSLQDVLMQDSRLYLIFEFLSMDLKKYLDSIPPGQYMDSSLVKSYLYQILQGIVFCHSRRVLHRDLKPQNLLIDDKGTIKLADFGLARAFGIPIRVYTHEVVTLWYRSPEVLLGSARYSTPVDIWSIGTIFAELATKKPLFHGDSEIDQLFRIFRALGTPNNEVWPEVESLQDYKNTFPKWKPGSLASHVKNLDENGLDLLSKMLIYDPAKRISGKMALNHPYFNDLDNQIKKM
T2 sequence (P14635 whole entry partner): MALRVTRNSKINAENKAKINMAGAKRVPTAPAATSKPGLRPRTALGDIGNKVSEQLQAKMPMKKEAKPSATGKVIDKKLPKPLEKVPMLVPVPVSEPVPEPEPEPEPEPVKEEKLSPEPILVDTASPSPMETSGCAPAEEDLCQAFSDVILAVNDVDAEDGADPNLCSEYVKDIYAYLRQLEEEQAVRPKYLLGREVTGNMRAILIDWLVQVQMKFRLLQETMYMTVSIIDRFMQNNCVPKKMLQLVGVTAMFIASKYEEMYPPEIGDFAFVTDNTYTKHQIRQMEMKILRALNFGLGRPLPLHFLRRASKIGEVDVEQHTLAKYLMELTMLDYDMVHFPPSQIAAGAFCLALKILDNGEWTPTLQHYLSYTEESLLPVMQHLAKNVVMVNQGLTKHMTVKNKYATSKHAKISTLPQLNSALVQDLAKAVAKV
Description: as §1

CDK2/Cyclin E1 [3] = target: T1, CDK2/Cyclin E1; experiment: CDK2/Cyclin E1 TR-FRET biochemical assay, 1 mM ATP; conditions: 0.15 μM Rb (Ser780)-biotin substrate, 90 min reaction, Table 2
CDK1/Cyclin B1 [4] = target: T2, CDK1/Cyclin B1; experiment: CDK1/Cyclin B1 TR-FRET biochemical assay, 1 mM ATP; conditions: 0.15 μM Rb (Ser780)-biotin substrate, 90 min reaction, Table 2

IC50 (CDK2/Cyclin E1 [1])	IC50 (CDK1/Cyclin B1 [2])	IC50 (CDK2/Cyclin E1 [3])	IC50 (CDK1/Cyclin B1 [4])	SMILES
14 nM	142 nM			O=c1cccnn1[C@H]1CC[C@@H](c2cc(Nc3ccc4c(c3F)CNS4(=O)=O)n[nH]2)C1 (relative stereo) [Example 21, cis-2-(3-(3-((4-fluoro-1,1-dioxido-2,3-dihydrobenzo[d]isothiazol-5-yl)amino)-1H-pyrazol-5-yl)cyclopentyl)pyridazin-3 (2H)-one]
43 nM	239 nM			O=S1(=O)NCc2c1ccc(Nc1cc([C@H]3CC[C@@H](Oc4cccnn4)C3)[nH]n1)c2F (relative stereo) [Example 22, cis-4-fluoro-5-((5-(3-(pyridazin-3-yloxy)cyclopentyl)-1H-pyrazol-3-yl)amino)-2,3-dihydrobenzo[d]isothiazole 1,1-dioxide]
132 nM	526 nM			Cc1ccnn([C@H]2CC[C@@H](c3cc(Nc4ccc5c(c4F)CNS5(=O)=O)n[nH]3)C2)c1=O (relative stereo) [Example 23, cis-2-(3-(3-((4-fluoro-1,1-dioxido-2,3-dihydrobenzo[d]isothiazol-5-yl)amino)-1H-pyrazol-5-yl)cyclopentyl)-4-methylpyridazin-3 (2H)-one]
		4.6 nM	685 nM	CC(C)(C)c1ccnc(C2CCC(c3cc(Nc4ccc5c(c4F)CS(=O)(=O)N5)n[nH]3)C2)c1 (centres unmarked) [Example 155, 5-((5-(3-(4-(tert-butyl)pyridin-2-yl)cyclopentyl)-1H-pyrazol-3-yl)amino)-4-fluoro-1,3-dihydrobenzo[c]isothiazole 2,2-dioxide]
		2020 nM	> 10000 nM	CC(C)(C)c1ccc(C2CCC(c3cc(Nc4ccc5c(c4F)CS(=O)(=O)N5)n[nH]3)C2)nc1 (centres unmarked) [Example 156, 5-((5-(3-(5-(tert-butyl)pyridin-2-yl)cyclopentyl)-1H-pyrazol-3-yl)amino)-4-fluoro-1,3-dihydrobenzo[c]isothiazole 2,2-dioxide]
		> 10000 nM	> 10000 nM	CC(C)(C)c1cccc(C2=CC(c3cc(Nc4ccc5c(c4F)CS(=O)(=O)N5)n[nH]3)CC2)n1 (centres unmarked) [Example 157, 5-((5-(3-(6-(tert-butyl)pyridin-2-yl)cyclopent-2-en-1-yl)-1H-pyrazol-3-yl)amino)-4-fluoro-1,3-dihydrobenzo[c]isothiazole 2,2-dioxide]
		84 nM	3930 nM	CC(C)(C)c1cccc(C2CCC(c3cc(Nc4ccc5c(c4F)CS(=O)(=O)N5)n[nH]3)C2)n1 (centres unmarked) [Example 158, 5-((5-(3-(6-(tert-butyl)pyridin-2-yl)cyclopentyl)-1H-pyrazol-3-yl)amino)-4-fluoro-1,3-dihydrobenzo[c]isothiazole 2,2-dioxide]
		1040 nM	> 10000 nM	Cc1cccc(C2CCC(c3cc(Nc4ccc5c(c4F)CS(=O)(=O)N5)n[nH]3)C2)n1 (centres unmarked) [Example 159, 4-fluoro-5-((5-(3-(6-methylpyridin-2-yl)cyclopentyl)-1H-pyrazol-3-yl)amino)-1,3-dihydrobenzo[c]isothiazole 2,2-dioxide]
		868 nM	> 10000 nM	COc1cccc(C2CCC(c3cc(Nc4ccc5c(c4F)CS(=O)(=O)N5)n[nH]3)C2)n1 (centres unmarked) [Example 160, 4-fluoro-5-((5-(3-(6-methoxypyridin-2-yl)cyclopentyl)-1H-pyrazol-3-yl)amino)-1,3-dihydrobenzo[c]isothiazole 2,2-dioxide]
		1060 nM	> 10000 nM	CC(C)(C)c1cc(C2CCC(c3cc(Nc4ccc5c(c4F)CS(=O)(=O)N5)n[nH]3)C2)ccn1 (centres unmarked) [Example 161, 5-((5-(3-(2-(tert-butyl)pyridin-4-yl)cyclopentyl)-1H-pyrazol-3-yl)amino)-4-fluoro-1,3-dihydrobenzo[c]isothiazole 2,2-dioxide]
		308 nM	> 10000 nM	CC(C)(C)c1cncc(C2CCC(c3cc(Nc4ccc5c(c4F)CS(=O)(=O)N5)n[nH]3)C2)c1 (centres unmarked) [Example 162, 5-((5-(3-(5-(tert-butyl)pyridin-3-yl)cyclopentyl)-1H-pyrazol-3-yl)amino)-4-fluoro-1,3-dihydrobenzo[c]isothiazole 2,2-dioxide]
		16 nM	2020 nM	CC(C)(C)c1cnnc(C2CCC(c3cc(Nc4ccc5c(c4F)CS(=O)(=O)N5)n[nH]3)C2)c1 (centres unmarked) [Example 163, 5-((5-(3-(5-(tert-butyl)pyridazin-3-yl)cyclopentyl)-1H-pyrazol-3-yl)amino)-4-fluoro-1,3-dihydrobenzo[c]isothiazole 2,2-dioxide]
		285 nM	> 10000 nM	Cc1cc(C(C)(C)C)cc(C2CCC(c3cc(Nc4ccc5c(c4F)CS(=O)(=O)N5)n[nH]3)C2)n1 (centres unmarked) [Example 164, 5-((5-(3-(4-(tert-butyl)-6-methylpyridin-2-yl)cyclopentyl)-1H-pyrazol-3-yl)amino)-4-fluoro-1,3-dihydrobenzo[c]isothiazole 2,2-dioxide]
		1.7 nM	126 nM	CC(C)c1ccnc(C2CCC(c3cc(Nc4ccc5c(c4F)CS(=O)(=O)N5)n[nH]3)C2)n1 (centres unmarked) [Example 165, 4-fluoro-5-((5-(3-(4-isopropylpyrimidin-2-yl)cyclopentyl)-1H-pyrazol-3-yl)amino)-1,3-dihydrobenzo[c]isothiazole 2,2-dioxide]
		0.9 nM	202 nM	CC(C)(C)c1cnc(C2CCC(c3cc(Nc4ccc5c(c4F)CCS(=O)(=O)N5)n[nH]3)C2)o1 (centres unmarked) [Example 166, 6-((5-(3-(5-(tert-butyl)oxazol-2-yl)cyclopentyl)-1H-pyrazol-3-yl)amino)-5-fluoro-3,4-dihydro-1H-benzo[c][1,2]thiazine 2,2-dioxide]
		8 nM	1100 nM	CC(C)c1cnc(C2CCC(c3cc(Nc4ccc5c(c4F)CCS(=O)(=O)N5)n[nH]3)C2)o1 (centres unmarked) [Example 167, 5-fluoro-6-((5-(3-(5-isopropyloxazol-2-yl)cyclopentyl)-1H-pyrazol-3-yl)amino)-3,4-dihydro-1H-benzo[c][1,2]thiazine 2,2-dioxide]
		15 nM	2350 nM	CC(C)c1cnc(C2CCC(c3cc(Nc4ccc5c(c4)CN=S5(C)=O)n[nH]3)C2)o1 (centres unmarked) [Example 168, 5-((5-(3-(5-isopropyloxazol-2-yl)cyclopentyl)-1H-pyrazol-3-yl)amino)-1-methyl-3H-1λ^4-benzo[d]isothiazole 1-oxide]
		5.4 nM	1440 nM	CC(C)c1cnc(C2CCC(c3cc(Nc4ccc5c(c4F)CN=S5(C)=O)n[nH]3)C2)o1 (centres unmarked) [Example 170]
		2 nM	348 nM	CC(C)(C)c1cnc(C2CCC(c3cc(Nc4ccc5c(c4F)CN=S5(C)=O)n[nH]3)C2)o1 (centres unmarked) [Example 171, 5-((5-(3-(5-(tert-butyl)oxazol-2-yl)cyclopentyl)-1H-pyrazol-3-yl)amino)-4-fluoro-1-methyl-3H-1λ^4-benzo[d]isothiazole 1-oxide]
		2.8 nM	198 nM	CC(C)(C)c1cnc(C2CCC(c3cc(Nc4ccc5c(c4F)CS(=O)(=O)C5)n[nH]3)C2)o1 (centres unmarked) [Example 173, 5-((5-(3-(5-(tert-butyl)oxazol-2-yl)cyclopentyl)-1H-pyrazol-3-yl)amino)-4-fluoro-1,3-dihydrobenzo[c]thiophene 2,2-dioxide]
		439 nM	> 10000 nM	Cc1cc(C(C)(C)C)cc(C2CCC(c3cc(Nc4ccc5c(c4F)CS(=O)(=O)C5)n[nH]3)C2)n1 (centres unmarked) [Example 175, 5-((5-(3-(4-(tert-butyl)-6-methylpyridin-2-yl)cyclopentyl)-1H-pyrazol-3-yl)amino)-4-fluoro-1,3-dihydrobenzo[c]thiophene 2,2-dioxide]
		438 nM	> 10000 nM	CC(C)(C)c1ccc(C2CCC(c3cc(Nc4ccc5c(c4F)CS(=O)(=O)C5)n[nH]3)C2)o1 (centres unmarked) [Example 176, 5-((5-(3-(5-(tert-butyl)furan-2-yl)cyclopentyl)-1H-pyrazol-3-yl)amino)-4-fluoro-1,3-dihydrobenzo[c]thiophene 2,2-dioxide]
		3 nM	336 nM	Cc1nc(C2CCC(c3cc(Nc4ccc5c(c4F)CS(=O)(=O)C5)n[nH]3)C2)oc1C(C)(C)C (centres unmarked) [Example 177, 5-((5-(3-(5-(tert-butyl)-4-methyloxazol-2-yl)cyclopentyl)-1H-pyrazol-3-yl)amino)-4-fluoro-1,3-dihydrobenzo[c]thiophene 2,2-dioxide]
		7 nM	1520 nM	CC(C)c1ccnc(C2CCC(c3cc(Nc4ccc5c(c4F)CS(=O)(=O)C5)n[nH]3)C2)c1 (centres unmarked) [Example 178, 4-fluoro-5-((5-(3-(4-isopropylpyridin-2-yl)cyclopentyl)-1H-pyrazol-3-yl)amino)-1,3-dihydrobenzo[c]thiophene 2,2-dioxide]
		1.5 nM	537 nM	CC(C)(O)c1cnc(C2CCC(c3cc(Nc4ccc5c(c4F)CS(=O)(=O)C5)n[nH]3)C2)o1 (centres unmarked) [Example 179, 4-fluoro-5-((5-(3-(5-(2-hydroxypropan-2-yl)oxazol-2-yl)cyclopentyl)-1H-pyrazol-3-yl)amino)-1,3-dihydrobenzo[c]thiophene 2,2-dioxide]
